# Data reported in US4330529A, “Antibacterial composition” (Fujisawa Pharmaceutical Co., Ltd., priority 1979, dated 1982).
# Tests used:
# Assay in all cases: MIC and FIC, Nutrient agar (Tests 2, 3)
# Format in all cases: cell-based
# [1] = system: Staphylococcus epidermidis 1601-1; conditions: 16011, S. epidermidis 1601-1, 20 h
# Procedure: (§1) After the incubation was carried out at 37° C. for 20 hours, MIC values were determined.
# [2] = system: Klebsiella pneumoniae NCTC 418; conditions: NCTC418, K. pneumoniae NCTC 418, 20 h
# Procedure: as §1
# [3] = system: Enterobacter cloacae 1401-4; conditions: Enterobacter cloacae, 14014; E. cloacae 1401-4; 20 h; read-out: MIC
# [4] = system: Serratia marcescens 1421-4; conditions: Serratia marcescens, 14214, 20 h
# [5] = system: Proteus mirabilis 1432-75; conditions: Proteus mirabilis, 143275, 20 h
# [6] = system: Salmonella typhimurium 1406; conditions: Salmonella enterica, TYPHIMURIUM, 20 h
smiles,measurement,setting,value
"CC1(C)S[C@@H]2[C@H](NC(=O)C(C(=O)O)c3ccsc3)C(=O)N2[C@H]1C(=O)O (stereo partly drawn) [B (Table 4), ticarcillin]",MIC,[1],3.13 µg/mL
same,MIC,[2],100 µg/mL
same,MIC,[3],50 µg/mL
same,MIC,[4],25 µg/mL
same,MIC,[5],0.78 µg/mL
same,MIC,[6],1.56 µg/mL
